Reference: ChEMBL document CHEMBL1154525, “Synthesis of 2-amino-5-benzoyl-4-(2-furyl)thiazoles as adenosine A(2A) receptor antagonists” (Bioorg Med Chem Lett, 2009)

Legend:
Adenosine receptor A1 = target: T1, Adenosine receptor A1 (Homo sapiens, UniProt P30542); test: Displacement of [3H]DPCPX from human recombinant adenosine A1 receptor expressed in CHOK1 cells; format: cell-based, CHO-K1
T1 sequence (P30542 whole entry): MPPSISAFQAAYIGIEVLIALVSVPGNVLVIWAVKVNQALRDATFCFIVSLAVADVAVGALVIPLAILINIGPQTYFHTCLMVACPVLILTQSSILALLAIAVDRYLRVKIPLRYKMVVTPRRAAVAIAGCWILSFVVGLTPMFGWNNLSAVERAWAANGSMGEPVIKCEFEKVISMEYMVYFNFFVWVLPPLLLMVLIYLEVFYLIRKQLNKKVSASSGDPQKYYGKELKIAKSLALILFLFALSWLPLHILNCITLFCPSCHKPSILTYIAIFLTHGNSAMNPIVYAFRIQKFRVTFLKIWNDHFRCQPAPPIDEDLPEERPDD

Homo sapiens = species on record: Homo sapiens; test: Selectivity ratio of Ki for human recombinant adenosine A1 receptor to Ki for human recombinant adenosine A2A receptor
Adenosine receptor A2a = Adenosine receptor A2a (Homo sapiens, UniProt P29274); test: Displacement of [3H]SCH-58261 from human recombinant adenosine A2A receptor expressed in HEK293 cells; format: cell-based
Adenosine receptor A2a, sequence (P29274 whole entry): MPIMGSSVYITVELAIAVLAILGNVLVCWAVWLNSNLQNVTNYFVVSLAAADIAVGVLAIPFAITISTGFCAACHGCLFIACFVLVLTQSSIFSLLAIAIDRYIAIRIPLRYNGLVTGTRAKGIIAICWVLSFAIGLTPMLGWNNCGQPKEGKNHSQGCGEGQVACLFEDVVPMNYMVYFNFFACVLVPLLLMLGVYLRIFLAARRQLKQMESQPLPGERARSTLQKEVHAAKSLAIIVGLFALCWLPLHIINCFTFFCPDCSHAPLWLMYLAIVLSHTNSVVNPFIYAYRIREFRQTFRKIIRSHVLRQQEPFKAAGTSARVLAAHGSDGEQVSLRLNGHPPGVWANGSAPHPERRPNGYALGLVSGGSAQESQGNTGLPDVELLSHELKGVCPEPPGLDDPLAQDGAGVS

| Ki (Adenosine receptor A1) [nM] | Ratio Ki (Homo sapiens) | Ki (Adenosine receptor A2a) [nM] | SMILES |
| --- | --- | --- | --- |
| 9460 | 3.4 | 2800 | CN(Cc1ccccc1)c1nc(-c2ccco2)c(C(=O)c2ccccc2)s1 |
| > 10000 | > 115 | 88 | O=C(c1ccccc1)c1sc(N(Cc2ccccc2)Cc2ccco2)nc1-c1ccco1 |
| > 10000 | > 1.5 | 6820 | CN(C)c1nc(-c2ccco2)c(C(=O)c2ccccc2)s1 |
| > 7500 | > 120 | 64 | O=C(c1ccccc1)c1sc(NCc2ccc(F)c(F)c2)nc1-c1ccco1 |
| 1460 | 35 | 43 | O=C(c1ccccc1)c1sc(NCc2ccco2)nc1-c1ccco1 |
| 6300 | 60 | 105 | O=C(c1ccccc1)c1sc(NCCCc2ccccc2)nc1-c1ccco1 |
| 3970 | 26 | 154 | COC(C)CNc1nc(-c2ccco2)c(C(=O)c2ccccc2)s1 (configuration not stated) |
| 2990 | 56 | 54 | O=C(c1ccccc1)c1sc(NCc2cccs2)nc1-c1ccco1 |
| > 6700 | > 580 | 12 | O=C(c1ccccc1)c1sc(NCCc2cccs2)nc1-c1ccco1 |
| 3580 | 54 | 67 | CNc1nc(-c2ccco2)c(C(=O)c2ccccc2)s1 |
| 3710 | 35 | 105 | O=C(c1ccccc1)c1sc(NC2CCN(C(=O)c3ccccc3F)CC2)nc1-c1ccco1 |
| 1280 | 14 | 89 | CC(C)CNc1nc(-c2ccco2)c(C(=O)c2ccccc2)s1 |
| 2420 | 9 | 281 | CC(=O)NCCNc1nc(-c2ccco2)c(C(=O)c2ccccc2)s1 |
| > 10000 | > 1.2 | 8170 | CN(CCc1cccs1)c1nc(-c2ccco2)c(C(=O)c2ccccc2)s1 |
| > 10000 | > 1.4 | 7140 | O=C(c1ccccc1)c1sc(N(CCc2cccs2)Cc2ccccc2)nc1-c1ccco1 |
| 3500 | 58 | 61 | O=C(c1ccccc1)c1sc(NCCc2ccc3c(c2)OCO3)nc1-c1ccco1 |
| 1240 | 3 | 455 | CC(=O)N1CCC(Nc2nc(-c3ccco3)c(C(=O)c3ccccc3)s2)CC1 |
| 3420 | 21 | 160 | CN(Cc1ccco1)c1nc(-c2ccco2)c(C(=O)c2ccccc2)s1 |
| 6780 | 35 | 195 | COCCNc1nc(-c2ccco2)c(C(=O)c2ccccc2)s1 |
